PMC7734590, “Identification of a Selective RelA Inhibitor Based on DSE-FRET Screening Methods” (International Journal of Molecular Sciences, 2020)

How the values were obtained:
[1] = molecular target: RelA (Homo sapiens, UniProt Q04206); experiment: DSE-FRET RelA–DNA binding inhibition; format: biochemical; set-up: Kinetic assay RelA Inhibition % ΔRFU(60 min-0 min) / RelA HTS % Inhibition / RelA Retest % Inhibition Run1 / RelA Retest % Inhibition Run2 / RelA Retest % Inhibition Avg. / Kinetic assay RelA % Inhibition ΔRFU(60 min-0 min): dose or concentration left out as unconfirmed; settings: for RelA Retest % Inhibition Avg.: Retest average of Run1 and Run2
Sequence of RelA (Q04206 19-306 limits assumed): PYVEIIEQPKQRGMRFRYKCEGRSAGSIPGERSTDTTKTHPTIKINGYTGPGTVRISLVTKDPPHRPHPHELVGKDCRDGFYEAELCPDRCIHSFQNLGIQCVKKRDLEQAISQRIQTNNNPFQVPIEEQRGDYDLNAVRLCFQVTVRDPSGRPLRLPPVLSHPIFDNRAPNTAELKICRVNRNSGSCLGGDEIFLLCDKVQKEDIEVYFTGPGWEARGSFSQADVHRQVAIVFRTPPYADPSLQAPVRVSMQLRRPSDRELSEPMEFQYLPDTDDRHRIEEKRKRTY

[2] = molecular target: T1, p52 (Homo sapiens, UniProt Q00653); experiment: DSE-FRET p52–DNA binding inhibition; format: biochemical; set-up: p52 Retest % Inhibition Run2 / p52 Retest % Inhibition Avg. / Kinetic assay p52 Inhibition % ΔRFU(60 min-0 min) / p52 HTS % Inhibition / p52 Retest % Inhibition Run1: dose or concentration left out as unconfirmed; settings: for p52 Retest % Inhibition Avg.: Retest average of Run1 and Run2
T1 sequence (Q00653 1-454 limits assumed): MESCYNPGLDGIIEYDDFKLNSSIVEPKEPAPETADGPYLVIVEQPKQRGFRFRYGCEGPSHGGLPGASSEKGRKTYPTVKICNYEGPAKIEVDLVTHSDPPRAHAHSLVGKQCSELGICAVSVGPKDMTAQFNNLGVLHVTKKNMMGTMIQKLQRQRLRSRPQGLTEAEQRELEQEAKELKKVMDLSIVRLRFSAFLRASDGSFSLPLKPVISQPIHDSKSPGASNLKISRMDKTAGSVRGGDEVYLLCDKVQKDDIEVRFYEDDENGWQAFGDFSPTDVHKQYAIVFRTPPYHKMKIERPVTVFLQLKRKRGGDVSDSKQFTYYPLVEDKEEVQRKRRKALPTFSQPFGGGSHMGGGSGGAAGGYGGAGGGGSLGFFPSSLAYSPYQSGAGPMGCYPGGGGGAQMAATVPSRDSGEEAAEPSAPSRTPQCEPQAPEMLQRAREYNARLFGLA

[3] = kinetic assay, ΔRFU 60 min-0 min
[4] = retest of known drugs, 1 = judged hit

RelA HTS % Inhibition ([1]; NPDepo hits) [%]	RelA Retest % Inhibition Run1 [1] [%]	RelA Retest % Inhibition Run2 [1] [%]	RelA Retest % Inhibition Avg. [1] [%]	Kinetic assay RelA Inhibition % ΔRFU(60 min-0 min) [1, 3] [%]	p52 HTS % Inhibition ([2]; NPDepo hits) [%]	p52 Retest % Inhibition Run1 [2] [%]	p52 Retest % Inhibition Run2 [2] [%]	p52 Retest % Inhibition Avg. [2] [%]	Kinetic assay p52 Inhibition % ΔRFU(60 min-0 min) [2, 3] [%]	RelA HTS % Inhibition ([1]; known drugs) [%]	Kinetic assay RelA % Inhibition ΔRFU(60 min-0 min) ([1]; kinetic assay, 60 min-0 min) [%]	Hit Judgement of: RelA [1, 4]	p52 HTS % Inhibition ([2]; known drugs) [%]	Kinetic assay p52 % Inhibition ΔRFU(60 min-0 min) ([2]; kinetic assay, 60 min-0 min) [%]	Hit Judgement of: p52 [2, 4]	SMILES
99.3	77.2	83.4	80.3	-12	86.7	78.7	85.1	81.9	-3.56	–	–	–	–	–	–	Nc1ccc2nc3ccc(N)cc3[n+](-c3ccccc3)c2c1.[Cl-] [Phenosafranin]
–	37.2	41.8	39.5	–	–	24.9	28.6	26.7	–	37.5	9	1	39.5	1.64	1	O=C1C(Cl)=C(NCCN2CCOCC2)C(=O)c2ncccc21 [NSC 663284]
